The text below walks through data of patent US7598417B2, “Substituted fluoroethyl ureas as alpha 2 adrenergic agents” (Allergan, Inc., priority 2007, dated 2009).

One may read the EC50 as the concentration that produces a half-maximal response.

One assay deals with T1, alpha2A receptor (Homo sapiens, UniProt P08913).
T1 construct: expressed in transfected cells; host or cells: NIH-3T3
T1 sequence (P08913 1-465): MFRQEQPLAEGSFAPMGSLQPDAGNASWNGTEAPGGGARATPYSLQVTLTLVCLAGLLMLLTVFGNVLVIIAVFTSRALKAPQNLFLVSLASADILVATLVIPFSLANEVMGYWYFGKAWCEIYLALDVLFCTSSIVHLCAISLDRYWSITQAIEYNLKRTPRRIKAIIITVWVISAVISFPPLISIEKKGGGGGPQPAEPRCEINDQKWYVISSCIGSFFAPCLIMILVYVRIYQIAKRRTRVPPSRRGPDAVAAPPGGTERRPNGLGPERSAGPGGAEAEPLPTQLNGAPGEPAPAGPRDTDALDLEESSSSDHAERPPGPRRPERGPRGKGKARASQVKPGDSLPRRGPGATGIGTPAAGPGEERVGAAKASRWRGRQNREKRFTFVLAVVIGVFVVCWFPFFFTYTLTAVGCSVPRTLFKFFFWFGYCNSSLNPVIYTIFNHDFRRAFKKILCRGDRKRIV
Kind of assay: Receptor Selection and Amplification Technology (RSAT) assay, alpha2A. The format is cell-based. The note with it: RSAT, NIH-3T3 cells cotransfected with receptor and Gq/i5; not active = not active at concentrations less than 10 micromolar. As to the method:
(§1) Receptor Selection and Amplification Technology (RSAT) Assay
(§2) The RSAT assay measures a receptor-mediated loss of contact inhibition that results in selective proliferation of receptor-containing cells in a mixed population of confluent cells. The increase in cell number is assessed with an appropriate transfected marker gene such as β-galactosidase, the activity of which can be easily measured in a 96-well format. Receptors that activate the G protein, Gq, elicit this response. Alpha2 receptors, which normally couple to Gi, activate the RSAT response when coexpressed with a hybrid Gq protein that has a Gi receptor recognition domain, called Gq/i5.
(§3) NIH-3T3 cells are plated at a density of 2×10^6 cells in 15 cm dishes and maintained in Dulbecco's modified Eagle's medium supplemented with 10% calf serum. One day later, cells are cotransfected by calcium phosphate precipitation with mammalian expression plasmids encoding p-SV-β-galactosidase (5-10 μg), receptor (1-2 μg) and G protein (1-2 μg). 40 μg salmon sperm DNA may also be included in the transfection mixture. Fresh media is added on the following day and 1-2 days later, cells are harvested and frozen in 50 assay aliquots. Cells are thawed and 100 μl added to 100 μl aliquots of various concentrations of drugs in triplicate in 96-well dishes. Incubations continue 72-96 hr at 37° C. After washing with phosphate-buffered saline, β-galactosidase enzyme activity is determined by adding 200 μl of the chromogenic substrate (consisting of 3.5 mM o-nitrophenyl-β-D-galactopyranoside and 0.5% nonidet P-40 in phosphate buffered saline), incubating overnight at 30° C. and measuring optical density at 420 nm. The absorbance is a measure of enzyme activity, which depends on cell number and reflects a receptor-mediated cell proliferation. The efficacy or intrinsic activity is calculated as a ratio of the maximal effect of the drug to the maximal effect of a standard full agonist for each receptor subtype. Brimonidine, also called UK14304, the chemical structure of which is shown below, is used as the standard agonist for the alpha2A, alpha2B and alpha2C receptors. The EC50 is the concentration at which the drug effect is half of its maximal effect.
(§4) EC50 values are nanomolar. NA stands for “not active” at concentrations less than 10 micromolar. IA stands for “intrinsic activity.”
As to `O=C(NCCF)NC1Cc2ccccc2C1`, the “Alpha 2A EC50” value is listed as “not active”.

Consider `CC1=CC(NC(=O)NCCF)CC1` (stereo not drawn), for which the “Alpha 2A EC50” value is “not active”.

As to `O=C(NCCF)NC1CCc2ccccc21` (stereo not drawn), the “Alpha 2A EC50” value is “not active”.

In the case of `Cc1ccc2c(c1)C(NC(=O)NCCF)CC2` (stereo not drawn), the “Alpha 2A EC50” value is listed as “not active”.

For `COc1ccc2c(c1)C(NC(=O)NCCF)CC2` (stereo not drawn), the “Alpha 2A EC50” value is on record as “not active”.

Consider `COc1ccc2c(c1)C(NC(=O)NCCF)CCC2` (stereo not drawn), for which the “Alpha 2A EC50” value is “not active”.

On to `O=C(NCCF)NC1CCc2ccccc2C1` (stereo not drawn), for which the “Alpha 2A EC50” value is “not active”.

In the case of `O=C(NCCF)NC1CCc2cc(Cl)ccc21` (stereo not drawn), the “Alpha 2A EC50” value is given as “not active”.

With `O=C(NCCF)NC1CCc2cc(Br)ccc21` (stereo not drawn), the “Alpha 2A EC50” value is given as “not active”.

Consider `O=C(NCCF)NC1CCc2cc(F)ccc21` (stereo not drawn), for which the “Alpha 2A EC50” value was “not active”.

As for `COc1ccc2c(c1)CCC2NC(=O)NCCF` (stereo not drawn), the “Alpha 2A EC50” value was “not active”.

A further assay addresses T2, alpha2B receptor (Homo sapiens, UniProt P18089).
T2 construct: expressed in transfected cells; host or cells: NIH-3T3
T2 sequence (P18089 1-450): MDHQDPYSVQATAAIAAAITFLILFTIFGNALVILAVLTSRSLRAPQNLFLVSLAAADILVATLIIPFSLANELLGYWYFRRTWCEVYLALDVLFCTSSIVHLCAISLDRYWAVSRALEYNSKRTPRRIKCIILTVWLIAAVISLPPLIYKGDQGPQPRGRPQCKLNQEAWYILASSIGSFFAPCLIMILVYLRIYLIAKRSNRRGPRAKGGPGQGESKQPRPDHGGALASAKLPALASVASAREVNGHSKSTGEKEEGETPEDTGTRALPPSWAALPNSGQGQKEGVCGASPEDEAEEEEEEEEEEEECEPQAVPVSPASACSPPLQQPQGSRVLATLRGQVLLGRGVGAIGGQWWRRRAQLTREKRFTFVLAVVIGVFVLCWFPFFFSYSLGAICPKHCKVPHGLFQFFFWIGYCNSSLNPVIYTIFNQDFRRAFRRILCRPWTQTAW
Kind of assay: Receptor Selection and Amplification Technology (RSAT) assay, alpha2B. The assay is classed as cell-based. The note with it: RSAT, NIH-3T3 cells cotransfected with receptor and Gq/i5; not active = not active at concentrations less than 10 micromolar. How it is done: as §1, §2, §3
The results of the RSAT assay with several exemplary compounds of the invention are disclosed in Table 1 above together with the chemical formulas of these exemplary compounds. EC50 values are nanomolar. NA stands for “not active” at concentrations less than 10 micromolar. IA stands for “intrinsic activity.”
Turning to `COc1ccc2c(c1)CCC2NC(=O)NCCF` (stereo not drawn), the “Alpha 2B EC50” value is “not active”.

Staying with this assay, now noted: RSAT, NIH-3T3 cells cotransfected with receptor and Gq/i5; not active = not active at concentrations less than 10 micromolar; read-out: Alpha 2B EC50.
Turning to `O=C(NCCF)NC1Cc2ccccc2C1`, the half-maximal effective concentration (EC50) was 18 nM.

Turning to `CC1=CC(NC(=O)NCCF)CC1` (stereo not drawn), the EC50 was found to be 1160 nM.

As to `O=C(NCCF)NC1CCc2ccccc21` (stereo not drawn), the EC50 came out at 6.3 nM.

For the compound `Cc1ccc2c(c1)C(NC(=O)NCCF)CC2` (stereo not drawn), the EC50 worked out at 32 nM.

For `COc1ccc2c(c1)C(NC(=O)NCCF)CC2` (stereo not drawn), the concentration giving a half-maximal response (EC50) was 300 nM.

As for `COc1ccc2c(c1)C(NC(=O)NCCF)CCC2` (stereo not drawn), the EC50 stood at 824 nM.

For the compound `O=C(NCCF)NC1CCc2ccccc2C1` (stereo not drawn), the EC50 came out at 226 nM.

Consider `O=C(NCCF)NC1CCc2cc(Cl)ccc21` (stereo not drawn), for which the EC50 worked out at 845 nM.

Turning to `O=C(NCCF)NC1CCc2cc(Br)ccc21` (stereo not drawn), the EC50 came to 2620 nM.

For `O=C(NCCF)NC1CCc2cc(F)ccc21` (stereo not drawn), the EC50 was 88 nM.

The assay is the same for the next values; noted with them: ratio of maximal effect of the drug to maximal effect of standard full agonist brimonidine (UK14304).
Turning to `O=C(NCCF)NC1Cc2ccccc2C1`, the “Alpha 2B IA (intrinsic activity)” value came out at 0.92.

Regarding `CC1=CC(NC(=O)NCCF)CC1` (stereo not drawn), the “Alpha 2B IA (intrinsic activity)” value was found to be 0.61.

As to `O=C(NCCF)NC1CCc2ccccc21` (stereo not drawn), the “Alpha 2B IA (intrinsic activity)” value came out at 1.21.

Regarding `Cc1ccc2c(c1)C(NC(=O)NCCF)CC2` (stereo not drawn), the “Alpha 2B IA (intrinsic activity)” value was 0.88.

For the compound `COc1ccc2c(c1)C(NC(=O)NCCF)CC2` (stereo not drawn), the “Alpha 2B IA (intrinsic activity)” value amounted to 0.81.

Consider `COc1ccc2c(c1)C(NC(=O)NCCF)CCC2` (stereo not drawn), for which the “Alpha 2B IA (intrinsic activity)” value is recorded as 0.78.

For `O=C(NCCF)NC1CCc2ccccc2C1` (stereo not drawn), the “Alpha 2B IA (intrinsic activity)” value is on record as 0.63.

Turning to `O=C(NCCF)NC1CCc2cc(Cl)ccc21` (stereo not drawn), the “Alpha 2B IA (intrinsic activity)” value was 0.31.

Turning to `O=C(NCCF)NC1CCc2cc(Br)ccc21` (stereo not drawn), the “Alpha 2B IA (intrinsic activity)” value came out at 0.31.

For `O=C(NCCF)NC1CCc2cc(F)ccc21` (stereo not drawn), the “Alpha 2B IA (intrinsic activity)” value is given as 0.59.

A further assay addresses T3, alpha2C receptor (Homo sapiens, UniProt P18825).
T3 construct: expressed in transfected cells; host or cells: NIH-3T3
T3 sequence (P18825 1-462): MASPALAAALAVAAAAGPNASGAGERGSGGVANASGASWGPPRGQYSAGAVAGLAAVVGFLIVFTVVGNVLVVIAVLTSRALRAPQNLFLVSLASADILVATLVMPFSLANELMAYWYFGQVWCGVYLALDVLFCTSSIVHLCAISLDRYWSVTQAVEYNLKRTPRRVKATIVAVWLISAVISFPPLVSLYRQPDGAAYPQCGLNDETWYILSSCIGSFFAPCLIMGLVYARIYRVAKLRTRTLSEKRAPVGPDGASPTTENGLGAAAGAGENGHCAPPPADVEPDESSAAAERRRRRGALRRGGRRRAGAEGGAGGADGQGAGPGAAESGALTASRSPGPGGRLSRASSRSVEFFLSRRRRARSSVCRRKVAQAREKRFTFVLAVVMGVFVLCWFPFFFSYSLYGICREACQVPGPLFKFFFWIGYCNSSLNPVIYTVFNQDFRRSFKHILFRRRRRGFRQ
Description: Receptor Selection and Amplification Technology (RSAT) assay, alpha2C. The format is cell-based. Conditions: RSAT, NIH-3T3 cells cotransfected with receptor and Gq/i5; not active = not active at concentrations less than 10 micromolar. How it is done: as §1, §2, §3, §4
In the case of `COc1ccc2c(c1)C(NC(=O)NCCF)CCC2` (stereo not drawn), the “Alpha 2C EC50” value is on record as “not active”.

As to `O=C(NCCF)NC1CCc2ccccc2C1` (stereo not drawn), the “Alpha 2C EC50” value is on record as “not active”.

Consider `O=C(NCCF)NC1CCc2cc(Cl)ccc21` (stereo not drawn), for which the “Alpha 2C EC50” value was “not active”.

Still in this assay, the particulars now being: RSAT, NIH-3T3 cells cotransfected with receptor and Gq/i5; not active = not active at concentrations less than 10 micromolar; read-out: Alpha 2C EC50.
`O=C(NCCF)NC1Cc2ccccc2C1`: the EC50 is 246 nM.

On to `CC1=CC(NC(=O)NCCF)CC1` (stereo not drawn), for which the EC50 was 911 nM.

With `O=C(NCCF)NC1CCc2ccccc21` (stereo not drawn), the EC50 came to 192 nM.

Turning to `Cc1ccc2c(c1)C(NC(=O)NCCF)CC2` (stereo not drawn), the EC50 was determined as 807 nM.

Take `COc1ccc2c(c1)C(NC(=O)NCCF)CC2` (stereo not drawn): the EC50 came to 1460 nM.

For the compound `O=C(NCCF)NC1CCc2cc(Br)ccc21` (stereo not drawn), the EC50 was 1260 nM.

On to `O=C(NCCF)NC1CCc2cc(F)ccc21` (stereo not drawn), for which the EC50 stood at 543 nM.

With `COc1ccc2c(c1)CCC2NC(=O)NCCF` (stereo not drawn), the EC50 was 1440 nM.

Still in this assay, the particulars now being: ratio of maximal effect of the drug to maximal effect of standard full agonist brimonidine (UK14304).
Regarding `O=C(NCCF)NC1Cc2ccccc2C1`, the “Alpha 2C IA (intrinsic activity)” value is listed as 0.48.

As to `CC1=CC(NC(=O)NCCF)CC1` (stereo not drawn), the “Alpha 2C IA (intrinsic activity)” value is given as 0.47.

As to `O=C(NCCF)NC1CCc2ccccc21` (stereo not drawn), the “Alpha 2C IA (intrinsic activity)” value was found to be 0.64.

`Cc1ccc2c(c1)C(NC(=O)NCCF)CC2` (stereo not drawn): the “Alpha 2C IA (intrinsic activity)” value is recorded as 0.31.

Turning to `COc1ccc2c(c1)C(NC(=O)NCCF)CC2` (stereo not drawn), the “Alpha 2C IA (intrinsic activity)” value came out at 0.31.

In the case of `O=C(NCCF)NC1CCc2cc(Br)ccc21` (stereo not drawn), the “Alpha 2C IA (intrinsic activity)” value is 0.31.

With `O=C(NCCF)NC1CCc2cc(F)ccc21` (stereo not drawn), the “Alpha 2C IA (intrinsic activity)” value stood at 0.54.

`COc1ccc2c(c1)CCC2NC(=O)NCCF` (stereo not drawn): the “Alpha 2C IA (intrinsic activity)” value came to 0.35.
